Common to all, as to format: cell-based
For one assay, the target named is T1, mouse GLP2 receptor (Mus musculus, UniProt Q5IXF8).
T1 construct: expressed in transfected cells; host or cells: HEK cells, transient transfection with GeneJuice
T1 sequence (Q5IXF8 1-512): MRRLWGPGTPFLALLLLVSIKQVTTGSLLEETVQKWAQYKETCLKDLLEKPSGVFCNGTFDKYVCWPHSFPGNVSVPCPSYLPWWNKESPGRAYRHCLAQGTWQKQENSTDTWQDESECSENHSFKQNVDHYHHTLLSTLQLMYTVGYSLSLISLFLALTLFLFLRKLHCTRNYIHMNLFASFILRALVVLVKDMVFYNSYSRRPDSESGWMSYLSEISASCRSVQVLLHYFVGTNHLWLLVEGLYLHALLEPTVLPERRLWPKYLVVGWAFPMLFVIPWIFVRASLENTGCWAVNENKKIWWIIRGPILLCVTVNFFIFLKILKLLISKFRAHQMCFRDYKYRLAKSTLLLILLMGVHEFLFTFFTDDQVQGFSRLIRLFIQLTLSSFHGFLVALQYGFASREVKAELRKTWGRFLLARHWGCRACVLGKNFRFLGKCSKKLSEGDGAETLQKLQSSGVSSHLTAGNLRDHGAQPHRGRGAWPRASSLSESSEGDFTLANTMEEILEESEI
As to the kind of experiment: cAMP accumulation assay, functional agonism of mouse GLP2 receptor. As to the method:
CAMP production upon agonist stimulation of mouse GLP2 or GLP1 receptors was assessed utilizing HiRange cAMP kit (Cisbio). In brief, HEK cells were transiently transfected for 24 hours with cDNA using GeneJuice Transfection reagent (EMD Millipore) and frozen at −80° C. for later use in the assay. On the day, various concentrations of compounds were dispensed using ECHO-555 (LabCyte) to a total volume of 100 nl into a low volume 384-well Proxi plate (Perkin Elmer) followed by addition of 10 μl of cell suspension delivering 8000 cells per well. Cells were prepared in the assay buffer (HBSS (Lonza) supplemented with 0.5 mM IBMX (Tocris)). After 45 min incubation at 37° C., the reaction was stopped by addition of the HTRF detection reagents in the lysis buffer provided in the kit. Following 1-hour incubation at RT, plates were read on Pherastar FS (BMG Labtech, Inc.) using standard HTRF settings. Dotmatics Studies software was used for calculation of pEC50 values by fitting data to a four-parameter concentration response curve.
(cAMP levels reflect the balance of adenylyl cyclase and phosphodiesterase activity.)

In a further assay the target is T2, human GLP2 receptor (Homo sapiens, UniProt O95838).
T2 construct: expressed in transfected cells; host or cells: HEK cells, BacMam virus transduction
T2 sequence (O95838 1-553): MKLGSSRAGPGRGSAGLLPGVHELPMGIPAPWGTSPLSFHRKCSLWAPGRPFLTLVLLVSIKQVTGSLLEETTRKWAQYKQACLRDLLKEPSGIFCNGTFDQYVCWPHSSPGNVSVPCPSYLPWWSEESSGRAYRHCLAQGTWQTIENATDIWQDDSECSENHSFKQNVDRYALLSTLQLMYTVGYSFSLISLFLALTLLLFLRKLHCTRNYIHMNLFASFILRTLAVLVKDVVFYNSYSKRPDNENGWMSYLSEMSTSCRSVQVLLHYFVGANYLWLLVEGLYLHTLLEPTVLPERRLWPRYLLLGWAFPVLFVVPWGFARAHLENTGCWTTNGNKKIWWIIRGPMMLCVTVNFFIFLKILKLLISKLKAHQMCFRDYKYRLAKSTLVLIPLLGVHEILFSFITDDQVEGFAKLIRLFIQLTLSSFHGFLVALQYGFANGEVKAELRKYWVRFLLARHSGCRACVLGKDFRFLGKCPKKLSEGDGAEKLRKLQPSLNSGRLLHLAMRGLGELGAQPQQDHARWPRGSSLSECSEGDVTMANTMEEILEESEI
As to the kind of experiment: cAMP accumulation assay, functional agonism of human GLP2 receptor. Conditions: HEK cells infected with human GLP2 receptor BacMam virus, HTRF cAMP; for Emax: HEK293, read-out: Human GLP-2R agonist cAMP Emax; for EC50: read-out: Human GLP-2R agonist cAMP pEC50 (converted). The method in brief:
(§1)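 Frozen HEK cells, previously BacMam-infected 24 h to express either receptor, are stimulated for 45 min at 37° C in IBMX-containing (0.5 mM) HBSS. The reaction is then terminated with HTRF reagents in lysis buffer.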

For another assay, the target named is T3, human GLP1 receptor (Homo sapiens, UniProt P43220).
T3 construct: expressed in transfected cells; host or cells: HEK cells, BacMam virus transduction
T3 sequence (P43220 24-463): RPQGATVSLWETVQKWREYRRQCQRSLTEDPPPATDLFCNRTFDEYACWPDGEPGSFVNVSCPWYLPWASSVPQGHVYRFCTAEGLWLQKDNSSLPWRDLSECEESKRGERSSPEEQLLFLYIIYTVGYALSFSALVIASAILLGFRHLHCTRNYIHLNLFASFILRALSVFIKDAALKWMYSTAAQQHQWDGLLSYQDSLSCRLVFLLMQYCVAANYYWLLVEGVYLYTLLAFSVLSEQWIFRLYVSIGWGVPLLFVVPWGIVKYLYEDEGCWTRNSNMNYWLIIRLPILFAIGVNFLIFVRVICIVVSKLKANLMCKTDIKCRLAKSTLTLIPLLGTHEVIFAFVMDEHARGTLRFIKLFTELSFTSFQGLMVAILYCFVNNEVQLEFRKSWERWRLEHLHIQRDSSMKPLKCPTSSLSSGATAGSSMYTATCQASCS
Briefly: cAMP accumulation assay, functional agonism of human GLP1 receptor. Conditions: HEK cells infected with human GLP1 receptor BacMam virus, HTRF cAMP; for Emax: HEK293, read-out: Human GLP-1R agonist cAMP Emax; for EC50: read-out: Human GLP-1R agonist cAMP pEC50 (converted). The method in brief:
as §1

The mark [1] stands for this setting: HEK293, HEK cells transiently transfected with mouse GLP2 receptor, HTRF cAMP, read-out: Mouse GLP-2R agonist cAMP Emax.
Where [2] appears, read: HEK cells transiently transfected with mouse GLP2 receptor, HTRF cAMP, read-out: Mouse GLP-2R agonist cAMP pEC50 (converted).

Where two headings read alike, the source gives them in different places. Positions of bridges follow the written chain, without caps; N, C: chain ends. Non-standard residues stand in square brackets, D forms with d. Residues, ends and D or L forms follow the SMILES beside them. *: point of attachment. Malonyl(2,2-Me2,histaminyl) = CC(C)(C(=O)NCCc1cnc[nH]1)C(=O)*; Ala(1H-tetrazol-5-yl) = N[C@@H](Cc1nnn[nH]1)C(=O)O; αMePhe(2-F) = C[C@](N)(Cc1ccccc1F)C(=O)O; αMeL = CC(C)C[C@](C)(N)C(=O)O; Nle = CCCC[C@H](N)C(=O)O; Aib = CC(C)(N)C(=O)O

This is an account of results in US20240270809A1, “ORAL GLP RECEPTOR AGONISTS” (priority 2020, published 2024).

By Emax is commonly meant the greatest response seen or fitted, relative to the assay's reference.

For `CCCC[C@H](NC(=O)[C@H](CCC(=O)O)NC(=O)[C@@H]1CCCCNC(=O)CC[C@H](NC(=O)[C@H](CC(=O)O)NC(=O)C(C)(C)NC(=O)[C@@H](N)Cc2c[nH]cn2)C(=O)N[C@@H](CO)C(=O)N[C@@H](Cc2ccccc2)C(=O)N[C@@H](CO)C(=O)N1)C(=O)N[C@H](Cc1ccccc1)C(=O)N[C@H]1CCC(=O)NCCCC[C@@H](C(=O)N[C@H]2CCCCNC(=O)C[C@@H](C(=O)N[C@@H](Cc3ccccc3)C(=O)N[C@H](C(=O)N[C@H]3CCC(=O)NCCCC[C@@H](C(=O)N[C@H]4CCCCNC(=O)CC[C@@H](C(N)=O)NC(=O)[C@H]([C@@H](C)O)NC(=O)[C@H]([C@@H](C)CC)NC(=O)[C@H](CCCCN)NC4=O)NC(=O)[C@H]([C@@H](C)CC)NC(=O)[C@H](CC(C)C)NC(=O)[C@H](Cc4c[nH]c5ccccc45)NC3=O)[C@@H](C)CC)NC(=O)[C@H](CCCCN)NC(=O)[C@H](C)NC(=O)[C@H](C)NC2=O)NC(=O)[C@H](CC(=O)O)NC(=O)[C@H](CC(C)C)NC(=O)[C@H]([C@@H](C)CC)NC1=O` [Example 75] (H-H[Aib]DESFSKE[Nle][dF]EILDKKAAKDFIEWLIKKKITE-NH2; lactam 4-8, 12-16, 17-21, 24-28, 29-33 (inferred); C-terminus assumed), the Emax at mouse GLP2 receptor (setting [1]) turned out to be 81.9%; at human GLP2 receptor, 102%; at human GLP1 receptor, 95%. Besides, the EC50 is 6.31 nM at mouse GLP2 receptor (setting [2]), 0.0398 nM on human GLP2 receptor and 0.631 nM on human GLP1 receptor.

Regarding `CCCC[C@@H]1NC(=O)[C@H](CCC(=O)O)NC(=O)[C@@H](NC(=O)[C@H](CO)NC(=O)[C@](C)(Cc2ccccc2F)NC(=O)[C@H](CO)NC(=O)[C@@H](C)NC(=O)[C@H](CC(=O)O)NC(=O)C(C)(C)C(=O)NCCc2c[nH]cn2)CCCCNC(=O)C[C@@H](C(=O)N[C@@](C)(CC(C)C)C(=O)N[C@@H](CC(C)C)C(=O)N[C@@H](CC(=O)O)C(=O)N[C@H]2CCC(=O)NCCCC[C@@H](C(=O)N[C@@H](CC(=O)O)C(=O)N[C@@H](Cc3ccccc3)C(=O)N[C@H](C(=O)N[C@H]3CCC(=O)NCCCC[C@@H](C(=O)N[C@H]4CCC(=O)NCCCC[C@@H](C(N)=O)NC(=O)[C@H]([C@@H](C)O)NC(=O)[C@H]([C@@H](C)CC)NC(=O)[C@H](CCCCN)NC4=O)NC(=O)[C@H]([C@@H](C)CC)NC(=O)[C@H](CC(C)C)NC(=O)[C@H](Cc4c[nH]c5ccccc45)NC3=O)[C@@H](C)CC)NC(=O)[C@H](C)NC(=O)[C@H](C)NC(=O)[C@H](CCCCN)NC2=O)NC(=O)[C@@H](Cc2ccccc2)NC1=O` [Example 50] ({Malonyl(2,2-Me2,histaminyl)}-D[dA]S[αMePhe(2-F)]SKE[Nle][dF]D[αMeL]LDEKAAKDFIEWLIKEKITK-NH2; lactam 6-10, 14-18, 22-26, 27-31 (inferred); C-terminus assumed), the figures for the Emax at mouse GLP2 receptor (setting [1]), on human GLP2 receptor and on human GLP1 receptor were 81%, 102% and 98.3%, respectively. Also, the EC50 at mouse GLP2 receptor (setting [2]) was 7.94 nM; on human GLP2 receptor it was 0.0251 nM; at human GLP1 receptor, 0.1 nM.

As to `CCCC[C@H](NC(=O)[C@H](CCC(=O)O)NC(=O)[C@H](CC(=O)O)NC(=O)[C@H](CO)NC(=O)[C@](C)(Cc1ccccc1F)NC(=O)[C@H](CO)NC(=O)CNC(=O)[C@H](Cc1nn[nH]n1)NC(=O)C(C)(C)C(=O)NCCc1c[nH]cn1)C(=O)N[C@H](Cc1ccccc1)C(=O)N[C@H]1CCC(=O)NCCCC[C@@H](C(=O)N[C@H]2CCC(=O)NCCCC[C@@H](C(=O)N[C@@H](CC(=O)O)C(=O)N[C@@H](Cc3ccccc3)C(=O)N[C@H](C(=O)N[C@H]3CCC(=O)NCCCC[C@@H](C(=O)N[C@H]4CCCCNC(=O)CC[C@@H](C(N)=O)NC(=O)[C@H]([C@@H](C)O)NC(=O)[C@H]([C@@H](C)CC)NC(=O)[C@H](CCCCN)NC4=O)NC(=O)[C@H]([C@@H](C)CC)NC(=O)[C@H](CC(C)C)NC(=O)[C@H](Cc4c[nH]c5ccccc45)NC3=O)[C@@H](C)CC)NC(=O)[C@H](C)NC(=O)[C@H](C)NC2=O)NC(=O)[C@H](CC(=O)O)NC(=O)[C@H](CC(C)C)NC(=O)[C@H]([C@@H](C)CC)NC1=O` [Example 52], the EC50 at mouse GLP2 receptor was 0.2 nM; at human GLP2 receptor, 0.01 nM; at human GLP1 receptor, 0.00251 nM. In addition, the Emax at mouse GLP2 receptor (HEK293, read-out: Mouse GLP-2R agonist cAMP Emax) is 103%; on human GLP2 receptor, 102%; on human GLP1 receptor, 98.8%.

For the compound `CCCC[C@H](NC(=O)[C@H](CCC(=O)O)NC(=O)[C@H](CC(=O)O)NC(=O)[C@H](CO)NC(=O)[C@](C)(Cc1ccccc1F)NC(=O)[C@H](CO)NC(=O)CNC(=O)[C@H](Cc1nn[nH]n1)NC(=O)C(C)(C)C(=O)NCCc1c[nH]cn1)C(=O)N[C@H](Cc1ccccc1)C(=O)N[C@H]1CCC(=O)NCCCC[C@@H](C(=O)N[C@H]2CCCCNC(=O)C[C@@H](C(=O)N[C@@H](Cc3ccccc3)C(=O)N[C@H](C(=O)N[C@H]3CCC(=O)NCCCC[C@@H](C(=O)N[C@H]4CCCCNC(=O)CC[C@@H](C(N)=O)NC(=O)[C@H]([C@@H](C)O)NC(=O)[C@H]([C@@H](C)CC)NC(=O)[C@H](CCCCN)NC4=O)NC(=O)[C@H]([C@@H](C)CC)NC(=O)[C@H](CC(C)C)NC(=O)[C@H](Cc4c[nH]c5ccccc45)NC3=O)[C@@H](C)CC)NC(=O)[C@H](CCCCN)NC(=O)[C@H](C)NC(=O)[C@H](C)NC2=O)NC(=O)[C@H](CC(=O)O)NC(=O)[C@H](CC(C)C)NC(=O)[C@H]([C@@H](C)CC)NC1=O` [Example 53] ({Malonyl(2,2-Me2,histaminyl)}-[Ala(1H-tetrazol-5-yl)]GS[αMePhe(2-F)]SDE[Nle][dF]EILDKKAAKDFIEWLIKKKITE-NH2; lactam 10-14, 15-19, 22-26, 27-31; C-terminus assumed), the figures for the Emax at mouse GLP2 receptor (setting [1]), at human GLP2 receptor and on human GLP1 receptor were 103%, 102% and 99.5%, respectively. Also, the EC50 on mouse GLP2 receptor (setting [2]) is 0.631 nM; on human GLP2 receptor, 0.02 nM; on human GLP1 receptor it was 0.00501 nM.
